Reference: patent US9649381B2, “Transporter protein-coupled nanodevices for targeted drug delivery” (Wayne State University, priority 2013, dated 2017)

Experiments:
C2Hx rats = assay: EMG recording of diaphragm recovery in C2Hx rats after injection into the paralyzed hemidiaphragm; type: in vivo, rat
Text: In one case, rats with hemisection at C2Hx, hereafter “C2Hx rats,” have undergone surgical treatment to disrupt the bulbospinal pathway from the rVRG to the PN, the primary source for descending respiratory drive. Paralysis of the ipsilateral diaphragm muscle in C2Hx confirmed by electomygram (EMG). In such rats, the latent crossed phrenic pathway remains intact, as axons decussate caudal to injury.
In one example, a nanodevice with a targeting portion of WGA-HRP and a molecule to be delivered of pro-THP, the pro-THP being bound to the connecting portion by a slow drug release linker, was administered by injection into the paralyzed hemidiaphragms of a cohort of 11 C2-hemisected rats. About 50 μl of the nanodevice, which contained about 0.275 μg of pro-THP, was injected. Five 10 μl injections were conducted at even spatial intervals to spread the conjugate throughout the hemidiaphragm. This constitutes a single round of injections and thus considered to be a one-time, single-injection type of treatment.
FIG. 3 illustrates a trial of C2Hx rats that have been treated with a WGA-HRP/gold/pro-theophylline nanodevice. In each plot, the Y-axis 301a/b/c/d represents a voltage signal and the X-axis 302/a/b/c/d represents time, increasing from left to right. Two different types of plots are shown in FIG. 3; FIG. 3A-C are EMG recordings and FIG. 3D is a phrenic nerve recording. […]

[1] = tested on: rat spinal cord injury model animals; assay: Chronic systemic drug administration, persistence of hemidiaphragm recovery in spinal cord injury model animals; type: in vivo; conditions: multiple systemic administrations over 3 days
Text: Chronic administrations of theophylline, however, induce plasticity in the respiratory pathways which results in recovery that persists for days. Specifically, three days of orally administered theophylline three times per day (for a total of nine doses) was sufficient to bring about and maintain respiratory recovery that persisted for about 3 days, about 7 days, about 12 days, and about 30 days after the last drug administration in separate groups of animals.
Theophylline is both an adenosine receptor antagonist and a phosphodiesterase (PDE) inhibitor. Chronic administration of rolipram (a PDE-4 specific inhibitor), pentoxifylline (a general PDE inhibitor), or DPCPX (an adenosine A1 receptor antagonist) also induce persistent functional recovery of a paralyzed hemidiaphragm in rat spinal cord injury model animals for as long as 10 days, the longest interval studied, after the animal is last exposed to the drugs. Although rolipram and pentoxifylline have been approved for clinical use, these “first generation” PDE inhibitors can induce the same side effects as theophylline, including nausea and vomiting.

[2] = tested on: patients with cervical spinal cord injury; conditions: cited from earlier work

CCCn1c(=O)c2[nH]c(C3CCCC3)nc2n(CCC)c1=O [DPCPX, 1,3-dipropyl-8-cyclopentylxanthine]
dosage required for recovery in a rat (C2Hx rats; single administration, studies like FIG. 3A-D): 0.093 microgram

Cn1c(=O)c2[nH]cnc2n(C)c1=O [theophylline]
recovery after multiple systemic administrations [1]: long-lasting recovery | amount of theophylline required to realize recovery (C2Hx rats; C2Hx rats, systemic treatment): 15 mg/kg | left diaphragm EMG activity ([2]; patient with asymmetrical cervical spinal cord injury, acute and chronic theophylline): markedly increased | increase in diaphragm EMG activity, maximum ([2]; tetraplegic patient, ventilator dependent, intravenous, increasing doses over one day, therapeutic levels): 50%
